Read-outs that look alike come from different tables or passages of the source.
What was measured:
Assay in all cases: Synergistic Growth Inhibition Assay (MIC and FIC index, 96-well, resazurin)
Type in all cases: cell-based
Alternaria solani = settings: Compound B alone, 7 days incubation; for MIC: Alternaria solani, read-out: MIC (B)
Procedure: (§1) In some embodiments, the synergistic action between the pesticidal active ingredient, and the at least one C6-C10 (or alternatively C11 or C12) saturated or unsaturated aliphatic acid components of the pesticidal compositions according to embodiments of the present disclosure was tested using a Synergistic Growth Inhibition Assay, which is derived from and related to a checkerboard assay as is known in the art for testing of combinations of antimicrobial agents. In the Synergistic Growth Inhibition Assay used in accordance with some embodiments of the present disclosure, multiple dilutions of combinations of pesticidal active ingredient and at least one C6-C10 saturated or unsaturated aliphatic acid agents are tested in individual cells for inhibitory activity against a target pest or pathogenic organism. In one such embodiment, the combinations of pesticidal active ingredient and C6-C10 (or alternatively C11 or C12) saturated or unsaturated aliphatic acid agents may preferably be tested in decreasing concentrations. In a further such embodiment, the combinations of pesticidal active ingredient and C6-C10 (or alternatively C11 or C12) saturated or unsaturated aliphatic acid agents may be tested in increasing concentrations. These multiple combinations of the pesticidal active ingredient and at least one C6-C10 (or alternatively C11 or C12) saturated or unsaturated aliphatic acid agents may be prepared in 96-well microtiter plates. In one such embodiment, the Synergistic Growth Inhibition Assay then comprises rows which each contain progressively decreasing concentrations of the pesticidal active ingredient and one or more C6-C10 (or alternatively C11 or C12) saturated or unsaturated aliphatic acid agents to test for the MIC of the agents in combination at which growth of the target pest or pathogen is inhibited. Thus, each well of the microtiter plate is a unique combination of the two agents, at which inhibitory efficacy of the combination against the target pest or pathogen can be determined.
(§2) In one embodiment according to the present disclosure, for each row of microtiter cells in the Synergistic Growth Inhibition Assay, the FIC index is calculated from the lowest concentration of the pesticidal active ingredient and one or more C6-C10 saturated or unsaturated aliphatic acid agents necessary to inhibit growth of a target pest or pathogen. The FIC of each component is derived by dividing the concentration of the agent present in that well of the microtiter plate by the minimal inhibitory concentration (MIC) needed of that agent alone to inhibit growth of the target pest or pathogen. The FIC index is then the sum of these values for both agents in that well of the microtiter plate. […] Fractional inhibitory concentration indices may then used as measure of synergy. […] When the FIC index is equal to 1, the combination is additive.
(§3) Then, serial dilutions of these initial compositions in successive wells in the row of the microtiter plate were used to assay the pesticidal composition under the same conditions to determine the concentration of the composition combining the two agents corresponding to the microtiter well in which growth inhibition of the target pest or organism ceases.
A culture of the representative fungal pathogen, namely Fusarium oxysporum, Botrytis cinerea, or Sclerotinia sclerotiorum, for example, is grown to exponential phase in potato dextrose broth (PDB).

Sclerotinia sclerotiorum = settings: Sclerotinia sclerotiorum, […], Compound B alone, read-out: MIC (B)
Procedure: as §1, §2, §3
(§4) Similarly to as described above, Resazurin was used as an indicator of growth or inhibition of growth of Sclerotinia sclerotiorum in the exemplary Synergistic Growth Inhibition Assay. In addition to the color change of the resazurin, an optical or visual examination of the microtiter well may also be made to additionally determine the presence of growth or inhibition of growth of the Sclerotinia sclerotiorum.

Botrytis cinerea = settings: Botrytis cinerea, 48 h, Compound B alone, 48 hours incubation, read-out: MIC (B)
Procedure: as §1, §2, §3
as §4, with “Botrytis cinerea” for “Sclerotinia sclerotiorum”, “Botrytis cinerea.” for “Sclerotinia sclerotiorum.”

Fusarium oxysporum = settings: Fusarium oxysporum, Compound B alone
Procedure: as §1, §2, §3
Resazurin dye (also known as Alamar blue dye) was used as an indicator to determine the presence of growth or inhibition of growth of Fusarium oxysporum in the wells of the 96 well microtiter plates used in the exemplary Synergistic Growth Inhibition Assay. In addition to the color change of the resazurin dye in the presence of growth of the Fusarium oxysporum, an optical or visual examination of the microtiter well may also be made to additionally determine the presence of growth or inhibition of growth of the Fusarium oxysporum.

[1] = 48 h, Table 27, 48 hours incubation, read-out: MIC (B)
[2] = 48 h, Table 28, 48 hours incubation, read-out: MIC (B)
[3] = 48 h, Table 29, 48 hours incubation, read-out: MIC (B)
[4] = 48 h, Table 31, 48 hours incubation, read-out: MIC (B)
[5] = 48 h, Table 15B, incubation 48 hours, read-out: MIC (B)

CCCCC(CC)C(=O)O (centres unmarked) [2-Ethylhexanoic acid]
156 µg/mL: MIC (Alternaria solani) | MIC (Sclerotinia sclerotiorum; 7 days incubation) | MIC (Botrytis cinerea; Table 51) | MIC (Botrytis cinerea; Table 59)

CCC(O)C(=O)O (centres unmarked) [2-Hydroxybutyric acid]
5000 µg/mL: MIC (Sclerotinia sclerotiorum; 7 days incubation) | MIC (Botrytis cinerea; Table 51)
2500 µg/mL: MIC (Alternaria solani) | MIC (B) (Alternaria solani) | MIC (Botrytis cinerea; Table 56) | MIC (Botrytis cinerea; Table 57) | MIC (Botrytis cinerea; Table 59)

CCCCCCC(O)C(=O)O (centres unmarked) [2-Hydroxyoctanoic acid]
625 µg/mL: MIC (Alternaria solani) | MIC (Sclerotinia sclerotiorum; 7 days incubation) | MIC (Botrytis cinerea; Table 51)

CCCCCCC=CCC(=O)O [3-Decenoic acid, 3-decenoic acid]
39.1 µg/mL: MIC (Sclerotinia sclerotiorum; Table 33, 7 days incubation) | MIC (Sclerotinia sclerotiorum; Table 35, 7 days incubation) | MIC (Sclerotinia sclerotiorum; Table 38, 7 days incubation) | MIC (Botrytis cinerea; Table 53) | MIC (Botrytis cinerea; Table 54)
156 µg/mL: MIC (Fusarium oxysporum; [3]) | MIC (Sclerotinia sclerotiorum; 7 days incubation) | MIC (Botrytis cinerea; Table 58)
312 µg/mL: MIC (Fusarium oxysporum; [1])
73.4 µg/mL: MIC (Fusarium oxysporum; 24 h, Table 3, 24 hour incubation, read-out: MIC(B)) | MIC (Fusarium oxysporum; 24 h, Table 4, 24 hour incubation, read-out: MIC (B))
78.1 µg/mL: MIC (Fusarium oxysporum; [2]) | MIC (Fusarium oxysporum; [4]) | MIC (Alternaria solani; Table 60) | MIC (Sclerotinia sclerotiorum; Table 40, 7 days incubation) | MIC (Sclerotinia sclerotiorum; Table 41, 7 days incubation) | MIC (Botrytis cinerea; Table 43) | MIC (Botrytis cinerea; Table 44) | MIC (Botrytis cinerea; Table 45) | MIC (Botrytis cinerea; Table 47) | MIC (Botrytis cinerea; Table 49) | MIC (Botrytis cinerea; Table 50) | MIC (Botrytis cinerea; Table 56)

CCCC=CCC(=O)O [3-Heptenoic acid]
78.1 µg/mL: MIC (Sclerotinia sclerotiorum; Table 33, 7 days incubation) | MIC (Sclerotinia sclerotiorum; Table 35, 7 days incubation) | MIC (Sclerotinia sclerotiorum; Table 39, 7 days incubation) | MIC (Sclerotinia sclerotiorum; Table 41, 7 days incubation) | MIC (Botrytis cinerea; Table 43) | MIC (Botrytis cinerea; Table 44) | MIC (Botrytis cinerea; Table 47) | MIC (Botrytis cinerea; Table 49)
312 µg/mL: MIC (Alternaria solani; Table 60)
156 µg/mL: MIC (Fusarium oxysporum; [1]) | MIC (Fusarium oxysporum; [2]) | MIC (Fusarium oxysporum; [3]) | MIC (Fusarium oxysporum; 48 h, Table 30, 48 hours incubation, read-out: MIC (B)) | MIC (Fusarium oxysporum; [4]) | MIC (Sclerotinia sclerotiorum; 7 days incubation)

CC(O)CC(=O)O (centres unmarked) [3-Hydroxybutyric acid, 3-hydroxybutyric acid]
5000 µg/mL: MIC (Alternaria solani) | MIC (Sclerotinia sclerotiorum; Table 20B, incubation 7 days) | MIC (Botrytis cinerea; Table 59)
10000 µg/mL: MIC (Fusarium oxysporum; 48 h, Table 10, incubation 48 hours, read-out: MIC (B)) | MIC (Fusarium oxysporum; [5]) | MIC (Sclerotinia sclerotiorum; Table 16, incubation 7 days) | MIC (Botrytis cinerea; Table 51) | MIC (Botrytis cinerea; Table 56)

CCCC(O)CC(=O)O (centres unmarked) [3-Hydroxyhexanoic acid, 3-hydroxyhexanoic acid]
2500 µg/mL: MIC (Fusarium oxysporum; [5]) | MIC (Alternaria solani) | MIC (Sclerotinia sclerotiorum; Table 20B, incubation 7 days) | MIC (Botrytis cinerea; Table 51) | MIC (Botrytis cinerea; Table 59)
5000 µg/mL: MIC (Sclerotinia sclerotiorum; Table 16, incubation 7 days) | MIC (Botrytis cinerea; Table 56)

CC(C)CC(=O)O [3-Methylbutyric acid]
625 µg/mL: MIC (Sclerotinia sclerotiorum; 7 days incubation)
312 µg/mL: MIC (Alternaria solani) | MIC (Botrytis cinerea; Table 51) | MIC (Botrytis cinerea; Table 59)

Reference: US11839212B2, “Synergistic pesticidal compositions and methods for delivery of insecticidal active ingredients” (0903608 B.C. Ltd., priority 2018, dated 2023)
